# Marks after values point to notes of the source that are not given here.
# Columns and labels:
# Type in all cases: in vivo, C57BL/6 mice
# [1] = Analysis of serum 25(OH)D3 levels (125I-radioimmunological assay); settings: dietary administration 10, 500, 1000 μg/kg per day; termination of the experiment
# Description: Blood samples were collected at selected time points throughout the experiment. Red blood cells were removed through two successive centrifugation steps as described above. Serum 25(OH)D3 levels were determined using a ^125I-radioimmunological assay following the manufacturer's instructions (DiaSorin, Stillwater, Minn.). Samples above the range of the standard curve were diluted prior to analysis. Radioactivity was quantified using a Cobra 5002 gamma scintillation counter (PerkinElmer, Shelton, Conn.).
# [2] = Analysis of serum calcium levels; settings: end of experiment, vehicle 10.1 mg/dl
# Description: Blood samples were collected at the termination of the experiments and spun at 6000 rpm (2938 g) for 15 min, followed by a second spin at 14000 rpm (16883 g) for 1 min. Serum calcium levels were determined using the calcium L3K reagent (Genzyme Diagnostics, Charlottetown, PE Canada) and the ABX Pentra 400 clinical chemistry analyzer (Horiba-ABX Diagnostics, Irvine, Calif.).
# [3] = Body weight monitoring (weight loss and toxicity)
# Description: Beginning 10 days prior to immunization, mice were fed a purified 0.87% calcium diet delivering the indicated doses of either 25(OH)D3 or 1,25(OH)2D3. Treatment continued for the duration of the experiment. (A) Average clinical EAE scores were determined daily for vehicle, 25(OH)D3, and 1,25(OH)2D3-treated mice (n=15-17). (B) Mice were weighed weekly (±SD) throughout the study to monitor weight loss and toxicity. (C) Serum calcium levels (±SD) were determined at the end of the experiment using a clinical chemistry analyzer. (D) Serum 25(OH)D3 levels (±SD) were determined at the termination of the experiment. *P<0.05 compared to control group. Vitamin D toxicity is known to cause weight loss and a dramatic rise in serum calcium levels. To assess the effect of UV treatment on these parameters, mice were weighed at selected time intervals throughout the study, and serum calcium levels were determined at the termination of the experiment. […] Furthermore, there were no detected difference in serum calcium levels at either the end of the UVB-pretreatment period (data not shown) or at the termination of the experiment (FIG. 1C). In addition, serum 25(OH)D3 levels were determined both at the end of the UVB-pretreatment period and at the termination of the experiment. […] Corresponding levels of the 5.0 kJ/m^2 group remained elevated at the termination of the experiment.
# EAE = EAE model of MS induced with MOG35-55, daily clinical scoring; settings: for Incidence: from 10 days before immunization, 25 days monitoring; for CDI / Day of Onset / Peak Severity: mean ± SD; for Peak Severity: score scale 0-5
# [4] = 10 μg/kg per day in purified diet
# [5] = 500 μg/kg per day in purified diet
# [6] = 1000 μg/kg per day in purified diet
# [7] = 2.5 μg/kg per day in purified diet
smiles,measurement,setting,value
"C=C1CC[C@H](O)C/C1=C/C=C1\CCC[C@]2(C)[C@@H]([C@H](C)CCCC(C)(C)O)CC[C@@H]12 [25(OH)D3, 25-hydroxyvitamin D3]",Serum 25(OH)D3 levels,[1],dose-dependent increase
same,Serum calcium levels,[2]; 10 μg/kg per day in diet,9.9 mg/dL
same,Serum calcium levels,[2]; 500 μg/kg per day in diet,12.9 mg/dL
same,Serum calcium levels,[2]; 1000 μg/kg per day in diet,14.2 mg/dL
same,Weight of the mice at the termination of the study,[3]; 1000 μg/kg per day in diet,significant decrease
same,"Effect on incidence, onset, severity, or progression of EAE",EAE; 10 μg/kg per day,no significant effect
same,Incidence,EAE; [4],88% (15/17)
same,CDI,EAE; [4],23 ± 16
same,Day of Onset,EAE; [4],14 ± 3
same,Peak Severity,EAE; [4],2.9 ± 0.9
same,Clinical EAE scores,EAE; 500 μg/kg per day,slight suppression
same,Incidence,EAE; [5],82% (14/17)
same,CDI,EAE; [5],19 ± 12
same,Day of Onset,EAE; [5],16 ± 4
same,Peak Severity,EAE; [5],2.7 ± 0.6
same,Suppression of EAE,EAE; 1000 μg/kg per day,modest suppression
same,Incidence,EAE; [6],82% (14/17)
same,CDI,EAE; [6],17 ± 11
same,Day of Onset,EAE; [6],16 ± 3
same,Peak Severity,EAE; [6],2.6 ± 0.6
"C=C1/C(=C\C=C2/CCC[C@]3(C)[C@@H]([C@H](C)CCCC(C)(C)O)CC[C@@H]23)C[C@@H](O)C[C@@H]1O [1,25(OH)2D3, 1α,25-dihydroxyvitamin D3]",Weight of the mice at the termination of the study,"[3]; mouse, in vivo",significant decrease
same,Induction of EAE,EAE; 2.5 μg/kg per day,prevented the induction of EAE
same,Incidence,EAE; [7],35% (6/17)†
same,CDI,EAE; [7],4 ± 7
same,Day of Onset,EAE; [7],20 ± 3
same,Peak Severity,EAE; [7],2.3 ± 0.6
same,Clinical signs of EAE,"EAE; pilot studies, 2.5 μg/kg per day (data not shown)",dramatic suppression
